Data set [1] in a line: pKa from normalized fluorescence intensity versus pH, with and without 100 mM sugar. The format is physicochemical. From the text:
A normalized plot of intensity at 427 nm as a function of pH is shown in FIG. 6, wherein I is the emission intensity at the specified pH and Io is the initial emission intensity at pH 3.0. Though not to be bound by theory, it is likely that the change in fluorescence intensity relative to pH value is attributed to the change in hybridization of the boron atom with increasing pH. At low pH values, the boronic acid group is an electron-deficient Lewis acid that is sp^2-hybridized and thus is trigonal planar. As the pH increases, the anionic form of the boronic acid begins to form, which corresponds to a more electron rich sp^3-hybridized boron atom and an […] shape. The change in the geometry of the boron atom induces the fluorescence spectral changes of the molecular sensing moieties.
Based on previously reported pKa values for boronic acid compounds, these pKa values are the lowest reported for a phenyl boronic acid derivative. The quaternary nitrogen of the quinolinium moiety not only reduces the pKa of the compound, but also stabilizes the anionic boronate diester complex (represented by D in FIG. 1), which may explain the affinity of sugar for these novel compounds. Importantly, the large decrease in the pKa of the boronic acid-sugar complex relative to the uncomplexed boronic acid, allows for the quantitative detection of monosaccharides at or below physiological pH because substantial optical changes are observed.
A normalized plot of intensity at 450 nm as a function of pH is shown in FIG. 14, wherein normalized intensity is the emission intensity at the specified pH, I, relative to the initial emission intensity at pH 3.0, Io. As discussed with reference to o-BMQBA, the change in the geometry of the boron atom may explain the fluorescence spectral changes of the molecular sensing moieties.
Comparing the pKa values of previously reported boronic acid compounds relative to the novel BMOQBA isomers, these pKa values are relatively low. As discussed with reference to o-BMQBA, the lower pKa values can be attributed to the increased Lewis acidity of the boronate diester complex (represented by D in FIG. 1). Importantly, the large decrease in the pKa of the boronic acid-sugar complex relative to the uncomplexed boronic acid, allows for the quantitative detection of monosaccharides at or below physiological pH because substantial optical changes are observed.

The nature of data set [2]: Fluorescence intensity response to glucose in solution. The settings on record: for decrease in fluorescence intensity: 0.60 mM glucose, pH 6 to 7 range, buffered solution. As for the experimental part: All steady state fluorescence measurements were performed in a 4×1×1 cm fluorometric plastic cuvette, using a Varian Cary Eclipse fluorometer, and all absorption measurements were performed using a Varian UV/VIS 50 spectrophotometer. […]
The emission spectra of o-BMOQBA in the presence of varying concentrations of glucose and fructose are shown in FIG. 12A and FIG. 12B, respectively. It can be seen that the fluorescence intensity of o-BMOQBA in pH 7.5 phosphate buffer is inversely proportional to the glucose and fructose concentrations. […] A plot of the intensity ratio, I′/I, at λ=450 nm, where I′ and I represent the fluorescence intensities in the absence and presence of sugar, respectively, is shown in FIG. 12C. […] Referring to FIG. 12C, there is a 2.8-fold change in intensity by the addition of 60 mM sugar.
The intensity ratio at λ=450 nm for o-BMOQBA in buffered media (pH 5-8) at various glucose concentrations is shown in FIG. 16A, wherein I′ corresponds to the intensity in the absence of glucose and I corresponds to the intensity at the specified glucose concentration. In addition, the intensity ratio for o-BMOQBA in buffered media (pH 5-8) at low glucose concentrations, typical of those found in tears, is shown in FIG. 16B. Correspondingly, the intensity ratio for o-BMOQBA in buffered media (pH 5-8) at various fructose concentrations is shown in FIGS. 17A and 17B.
Each BAF was tested to determine the usefulness of these BAFs with regard to tear glucose sensing in a contact lens. Towards that end, both solution-based and doped contact lens-based measurements, the methods of which are described above, were performed and subsequently compared.

[3] abbreviates: buffer with 100 mM fructose, 100 mM fructose, read-out: pKa (buffer + fructose).
The mark [4] stands for this setting: buffer with 100 mM glucose, 100 mM glucose, read-out: pKa (buffer + glucose).
The mark [5] stands for this setting: buffer without sugar, absence of sugar, read-out: pKa (buffer).

Like-named read-outs stand apart in the source and are kept apart here.

As a reminder, the pKa is the negative logarithm of the acid dissociation constant. As for `COc1ccc2c(ccc[n+]2Cc2ccccc2B(O)O)c1.[Br-]` [o-BMOQBA, N-(2-boronobenzyl)-6-methoxyquinolinium bromide], the values for the pKa in data set [1] (setting [3]), in data set [1] (setting [4]) and in data set [1] (setting [5]) were 4.8, 6.62 and 7.9, respectively. Further, the “decrease in fluorescence intensity” value in data set [2] is recorded as 5-10%. Besides, the “change in intensity (I′/I at 450 nm)” value in data set [2] (addition of 60 mM sugar, pH 7.5 phosphate buffer (FIG. 12C)) worked out at 2.8 fold.

For `Cc1ccc2c(ccc[n+]2Cc2ccccc2B(O)O)c1.[Br-]` [o-BMQBA, N-(2-boronobenzyl)-6-methylquinolinium bromide], the pKa in data set [1] (setting [3]) is 5.08; in data set [1] (setting [4]) it was 6.18; in data set [1] (setting [5]) it was 6.92. Moreover, in data set [2], the “decrease in fluorescence intensity” value was roughly 10%.

These data come from patent publication US7718804B2, “Quaternary nitrogen heterocyclic compounds for detecting aqueous monosaccharides in physiological fluids” (University of Maryland Biotechnology Institute, priority 2003, dated 2010).
